From patent publication US10336768B2, “Pyrimidine compounds and methods using the same” (Yuma Therapeutics, Inc., priority 2014, dated 2019) come the findings set out here.

Each structure is given as a SMILES string.

The first test has as its system T1, His-tagged-Hsp90.
T1 construct: fused on or other part: His tag (captured on Ni2+-coated beads)
Briefly: Hsp90 biochemical assay (AlphaLISA). Type of test: binding. As to conditions: IC50 class; AlphaLISA (primary assay); read-out: Hsp90 inhibitory activity. On the procedure: This assay employs biotinylated geldanamycin, His-tagged-Hsp90, and Ni^+2 coated beads. This assay is homogenous and miniaturized to 384-well plates. Measurement of binding activity was performed on an Envision reader. […] This assay is the primary assay for evaluating compounds of the invention.
For the molecule `Nc1nc(-c2c(Cl)cc(Cl)c3c2CCO3)c2[nH]cc(C=O)c2n1` [compound 56, 2-amino-4-(5,7-dichloro-2,3-dihydrobenzofuran-4-yl)-5H-pyrrolo[3,2-d]pyrimidine-7-carbaldehyde], the IC50 is greater than 10000 nM.
Same read-out and setting: the value for `Nc1nc(-c2c(Cl)cc(Cl)c3c2CCO3)c2cc(C(=O)N3CCCC3)sc2n1` [compound 69, (2-amino-4-(5,7-dichloro-2,3-dihydrobenzofuran-4-yl)thieno[2,3-d]pyrimidin-6-yl)(pyrrolidin-1-yl)methanone] was 1000 to 4000 nM; that for `Nc1nc(-c2c(Cl)cc(Cl)c3c2CCO3)c2cc(C(=O)NCC(F)(F)F)sc2n1` [compound 61, 2-amino-4-(5,7-dichloro-2,3-dihydrobenzofuran-4-yl)-N-(2,2,2-trifluoroethyl)thieno[2,3-d]pyrimidine-6-carboxamide] was less than 1000 nM; that for `Nc1nc(Cl)c(N)c(-c2c(Cl)cc(Cl)c3c2CCO3)n1` [compound 52, 4-chloro-6-(5,7-dichloro-2,3-dihydrobenzofuran-4-yl)pyrimidine-2,5-diamine] was less than 1000 nM.
On the same count and under the same terms, the value for `CNc1cc(-c2c(Cl)cc(Cl)c3c2CCO3)nc(N)n1` [compound 33] was 4000 to 10000 nM; that for `COc1cc(-c2nc(N)nc3c2CCC3)c(Cl)cc1F` [compound 11, 4-(2-chloro-4-fluoro-5-methoxyphenyl)-6,7-dihydro-5H-cyclopenta[d]pyrimidin-2-amine] was 4000 to 10000 nM; that for `N#CCCNC(=O)c1cc2c(-c3c(Cl)cc(Cl)c4c3CCO4)nc(N)nc2s1` [compound 59, 2-amino-N-(2-cyanoethyl)-4-(5,7-dichloro-2,3-dihydrobenzofuran-4-yl)thieno[2,3-d]pyrimidine-6-carboxamide] was less than 1000 nM.
In the case of `Nc1nc(-c2c(Cl)cc(Cl)c3c2CCO3)cc(C(F)(F)F)n1` [compound 50, 4-trifluoromethyl-6-(5,7-dichloro-2,3-dihydrobenzofuran-4-yl)pyrimidin-2-amine], the IC50 was 1000 to 4000 nM.
On the same count and under the same terms, the value for `CNC(=O)c1cc2c(-c3c(Cl)cc(Cl)c4c3CCO4)nc(N)nc2s1` [compound 63, 2-amino-4-(5,7-dichloro-2,3-dihydrobenzofuran-4-yl)-N-methylthieno[2,3-d]pyrimidine-6-carboxamide] was less than 1000 nM; that for `CN(C)C(=O)c1cc2c(-c3c(Cl)cc(Cl)c4c3CCO4)nc(N)nc2s1` [compound 66, 2-amino-4-(5,7-dichloro-2,3-dihydrobenzofuran-4-yl)-N,N-dimethylthieno[2,3-d]pyrimidine-6-carboxamide] was less than 1000 nM.
The same measure, in the same setting: the value for `CCNC(=O)Cn1ccc2c(-c3c(Cl)cc(Cl)c4c3CCO4)nc(N)nc21` [compound 32] was greater than 10000 nM; that for `Cc1cc(-c2cc(OC(C)C)c(Cl)cc2Cl)nc(N)n1` [compound 2] was 1000 to 4000 nM; that for `Nc1nc(Cl)cc(-c2c(Cl)cc(Cl)c3c2CCO3)n1` [compound 49, 4-chloro-6-(5,7-dichloro-2,3-dihydrobenzofuran-4-yl)pyrimidin-2-amine] was less than 1000 nM.
Regarding `COc1cc(-c2cc(C)nc(N)n2)c(Cl)cc1Cl` [compound 38], the IC50 was 1000 to 4000 nM.
On the same count and under the same terms, with `CN(CC(F)(F)F)C(=O)c1cc2c(-c3c(Cl)cc(Cl)c4c3CCO4)nc(N)nc2s1` [compound 70, 2-amino-4-(5,7-dichloro-2,3-dihydrobenzofuran-4-yl)-N-methyl-N-(2,2,2-trifluoroethyl)thieno[2,3-d]pyrimidine-6-carboxamide] the figure was 4000 to 10000 nM; with `CSc1cc(-c2c(Cl)cc(Cl)c3c2CCO3)nc(N)n1` [compound 51, 4-thiomethyl-6-(5,7-dichloro-2,3-dihydrobenzofuran-4-yl)pyrimidin-2-amine], less than 1000 nM; with `Nc1nc(-c2c(Cl)cc(Cl)c3c2CCO3)c2cc(C(=O)NCCO)sc2n1` [compound 60, 2-amino-4-(5,7-dichloro-2,3-dihydrobenzofuran-4-yl)-N-(2-hydroxyethyl)thieno[2,3-d]pyrimidine-6-carboxamide], less than 1000 nM.
Turning to `COc1cc(-c2cc(SC)nc(N)n2)c(Cl)cc1Cl` [compound 35], the IC50 is less than 1000 nM.
Still for that read-out and setting: the value for `COc1cc(-c2cc(Cl)nc(N)n2)ccc1Cl` [Compound 79] was less than 1000 nM.
On to `CCNC(=O)Cn1ccc2nc(N)nc(-c3c(Cl)cc(Cl)c4c3CCO4)c21` [compound 31], for which the IC50 is greater than 10000 nM.
Turning to `COC(=O)n1ccc2nc(N)nc(-c3c(Cl)cc(Cl)c4c3CCO4)c21` [compound 54, Methyl 2-amino-4-(5,7-dichloro-2,3-dihydrobenzofuran-4-yl)-5H-pyrrolo[3,2-d]pyrimidine-5-carboxylate], the IC50 was greater than 10000 nM.
In the case of `Nc1nc(-c2c(Cl)cc(Cl)c3c2CCO3)c2cc(C(=O)NC3CC3)sc2n1` [compound 62, 2-amino-N-cyclopropyl-4-(5,7-dichloro-2,3-dihydrobenzofuran-4-yl)thieno[2,3-d]pyrimidine-6-carboxamide], the IC50 is less than 1000 nM.
`CN(C(=O)c1cc2c(-c3c(Cl)cc(Cl)c4c3CCO4)nc(N)nc2s1)C1COC1` [compound 72, 2-amino-4-(5,7-dichloro-2,3-dihydrobenzofuran-4-yl)-N-methyl-N-(oxetan-3-yl)thieno[2,3-d]pyrimidine-6-carboxamide]: the IC50 fell in the range of 1000 to 4000 nM.
As to `Nc1nc(-c2c(Cl)cc(Cl)c3c2CCO3)c2cc(C(=O)NC3COC3)sc2n1` [compound 67, 2-amino-4-(5,7-dichloro-2,3-dihydrobenzofuran-4-yl)-N-(oxetan-3-yl)thieno[2,3-d]pyrimidine-6-carboxamide], the IC50 is less than 1000 nM.
As to `CON(C)C(=O)c1cc2c(-c3c(Cl)cc(Cl)c4c3CCO4)nc(N)nc2s1` [compound 75, 2-amino-4-(5,7-dichloro-2,3-dihydrobenzofuran-4-yl)-N-methoxy-N-methylthieno[2,3-d]pyrimidine-6-carboxamide], the IC50 is less than 1000 nM.
On the same count and under the same terms, with `Nc1nc(-c2c(Cl)cc(Cl)c3c2CCO3)c2cc(C(=O)NC3CCC3)sc2n1` [compound 65, 2-amino-N-cyclobutyl-4-(5,7-dichloro-2,3-dihydrobenzofuran-4-yl)thieno[2,3-d]pyrimidine-6-carboxamide] the figure was less than 1000 nM; with `COc1cc(-c2nc(N)nc(-c3cc(OC)c(Cl)cc3Cl)n2)c(Cl)cc1Cl` [compound 37], greater than 10000 nM.
On the same count and under the same terms, the value for `COc1cc(-c2nc(N)nc(SC)n2)c(Cl)cc1Cl` [compound 34] was less than 1000 nM; that for `Nc1nc2c(c(-c3c(Cl)cc(Cl)c4c3CCO4)n1)CCCC2` [compound 15, 4-(5,7-dichloro-2,3-dihydrobenzofuran-4-yl)-5,6,7,8-tetrahydroquinazolin-2-amine] was 4000 to 10000 nM.
Take `COc1ccc(Cl)c(-c2cc(Cl)nc(N)n2)c1` [Compound 78]: the IC50 was in the range of 1000 to 4000 nM.
The same measure, in the same setting: the value for `Nc1nc(-c2c(Cl)cc(Cl)c3c2CCO3)c2cc(C(=O)N3CCOCC3)sc2n1` [compound 68, (2-amino-4-(5,7-dichloro-2,3-dihydrobenzofuran-4-yl)thieno[2,3-d]pyrimidin-6-yl)(morpholino)methanone] was 1000 to 4000 nM; that for `Cc1cc(-c2c(Cl)cc(Cl)c3c2CCO3)nc(N(C)C)n1` [compound 4, 4-(5,7-Dichloro-2,3-dihydrobenzofuran-4-yl)-N,N,6-trimethylpyrimidin-2-amine] was greater than 10000 nM; that for `CC(C)(O)c1cc2c(-c3c(Cl)cc(Cl)c4c3CCO4)nc(N)nc2s1` [compound 77, 2-(2-amino-4-(5,7-dichloro-2,3-dihydrobenzofuran-4-yl)thieno[2,3-d]pyrimidin-6-yl)propan-2-ol] was 1000 to 4000 nM.
Same read-out and setting: the value for `Nc1nc(-c2c(Cl)cc(Cl)c3c2CCO3)c2cc(C(=O)NCCN3CCCC3)sc2n1` [compound 58, 2-amino-4-(5,7-dichloro-2,3-dihydrobenzofuran-4-yl)-N-(2-(pyrrolidin-1-yl)ethyl)thieno[2,3-d]pyrimidine-6-carboxamide] was less than 1000 nM; that for `CN(C(=O)c1cc2c(-c3c(Cl)cc(Cl)c4c3CCO4)nc(N)nc2s1)C1CC1` [compound 74, 2-amino-N-cyclopropyl-4-(5,7-dichloro-2,3-dihydrobenzofuran-4-yl)-N-methylthieno[2,3-d]pyrimidine-6-carboxamide] was 1000 to 4000 nM.
The same measure, in the same setting: the value for `COc1cc(-c2cc(C)nc(N)n2)c(C(F)(F)F)cc1Cl` [compound 1] was greater than 10000 nM; that for `COc1cc(-c2nc(N)nc3c(Br)c[nH]c23)c(Cl)cc1Cl` [compound 57, 7-bromo-4-(2,4-dichloro-5-methoxyphenyl)-5H-pyrrolo[3,2-d]pyrimidin-2-amine] was greater than 10000 nM; that for `CNc1nc(C)cc(-c2c(Cl)cc(Cl)c3c2CCO3)n1` [compound 3, 4-(5,7-Dichloro-2,3-dihydrobenzofuran-4-yl)-N,6-dimethylpyrimidin-2-amine] was greater than 10000 nM.
`Cn1ccc2c(-c3c(Cl)cc(Cl)c4c3CCO4)nc(N)nc21` [compound 30]: the IC50 is greater than 10000 nM.
In the case of `COCCNC(=O)c1cc2c(-c3c(Cl)cc(Cl)c4c3CCO4)nc(N)nc2s1` [compound 64, 2-amino-4-(5,7-dichloro-2,3-dihydrobenzofuran-4-yl)-N-(2-methoxyethyl)thieno[2,3-d]pyrimidine-6-carboxamide], the IC50 is less than 1000 nM.
With `CCNC(=O)N1Cc2nc(N)nc(-c3c(Cl)cc(Cl)c4c3CCO4)c2C1` [compound 17], the IC50 is greater than 10000 nM.
As to `CN(CCC#N)C(=O)c1cc2c(-c3c(Cl)cc(Cl)c4c3CCO4)nc(N)nc2s1` [compound 71, 2-amino-N-(2-cyanoethyl)-4-(5,7-dichloro-2,3-dihydrobenzofuran-4-yl)-N-methylthieno[2,3-d]pyrimidine-6-carboxamide], the IC50 is less than 1000 nM.
Regarding `Nc1nc(O)cc(-c2c(Cl)cc(Cl)c3c2CCO3)n1` [compound 53, 2-amino-6-(5,7-dichloro-2,3-dihydrobenzofuran-4-yl)pyrimidin-4-ol], the IC50 was greater than 10000 nM.

Staying with this test, now noted: known Hsp90 inhibitor, biotinylated geldanamycin; read-out: IC50 (AlphaLISA assay validation).
For the molecule `CC(C)NCCCn1c(Sc2cc3c(cc2I)OCO3)nc2c(N)ncnc21` [PU-H71, reference compound], the IC50 is 60 nM.
